Measured values: patent US6537797B1, “Compositions and methods useful in bioremediation of polychlorinated biphenyls” (Indiana University, Advanced Research and Technology …, priority 1999, dated 2003)
“Also recorded” adds a separate entry of the source.

What was measured:
Assay type in all cases: cell-based
bacterial strain SK-3 [1] = assay: Growth substrate tests in liquid medium; conditions: initial concentration 100 parts per million, except chlorobenzoate 2-3 millimolar
Procedure: (§1) The ability of the four isolated strains to grow on selected polychlorobiphenyls as a sole carbon source was assessed.
(§2) (All tests were conducted in a liquid medium. The initial concentration of the organic substrate was 100 parts per million, except chlorobenzoate, which was 2-3 millimolar).

bacterial strain SK-4 [2] = assay: Growth substrate tests in liquid medium; conditions: initial concentration 100 parts per million, except chlorobenzoate 2-3 millimolar
Procedure: as §1, §2

bacterial strain SK-2 [3] = assay: Growth of SK-2 on 3,4-DCBP as sole carbon source and its degradation
Procedure: Growth of bacterial strains SK-1 and SK-2 on 2,3-DCBP and 3,4-DCBP, respectively, as a sole carbon source was determined using direct counting and an acridine orange staining method. This method involves filtering 0.1 milliliters of culture through a 0.45 micron filter, staining the cells on the filter using a 0.01% acridine orange solution for 3 to 5 minutes, and counting cells on the filter using an epifluorescent microscope at a 1000′ magnification. SK-1+ contained 2,3-dichlorobiphenyl; SK-2+ contained 3,4-dichlorobiphenyl. Control bottles in each case were identical to experimental bottles in that they were inoculated with the cultures but they lacked the appropriate congener. The initial concentration of PCBs was 500 ppm (w/v). The cell numbers of the two isolates increased by 1.5 orders of magnitude in the presence of the DCBPs used as a growth substrate. The degradation of 2,3-DCBP by SK-1 and production of 2,3-dichlorobenzoate is depicted in FIG. 3. The degradation of 3,4-DCBP by SK-2 and production of 3,4-dichlorobenzoate is depicted in FIG. 4.
(§3) The concentrations of chlorobenzoates and dichlorobiphenyls were assessed after hexane extraction of bottles using gas chromatography analysis of the extracts with an electron capture detector. Chlorobenzoates were analyzed using standard columns after derivitization with pentafluorobenzyl bromide. Dichlorobiphenyls were analyzed using a DB-5 column (J&W Scientific, Fulsom, Calif.).
The data shown in FIGS. 2, 3 and 4 illustrates the nearly complete disappearance of both 2,3-DCBP (0.38 mM initial concentration, FIG. 3) and 3,4-DCBP (0.3 mM initial concentration, FIG. 4) within 10 days of incubation. Duplicate bottles were used and error bars of the pictures represent a standard deviation. Controls contained DCBPs but lacked inoculum. DCBPs were supplied in the bottles using the non-biodegradable carrier heptamethylnonane (HMN).

bacterial strain SK-1 = assay: Growth substrate tests in liquid medium; conditions: initial concentration 100 parts per million, except chlorobenzoate 2-3 millimolar
Procedure: as §1, §2

bacterial strain SK-2 [4] = assay: Growth substrate tests in liquid medium; conditions: initial concentration 100 parts per million, except chlorobenzoate 2-3 millimolar
Procedure: as §1, §2

bacterial strain SK-3 [5] = assay: Biodegradation of commercial PCB mixture Aroclor 1242 as sole carbon source; conditions: 12 days; benzoate-grown washed cells; no cosubstrate; GC
Procedure: In addition to testing the ability to use a single PCB congener as a sole carbon source (as described in Example 1), several strains of the isolated bacteria of the invention (SK-1, SK-2, SK-3 and SK-4) were tested for the ability to degrade low chlorinated PCB congeners (dichlorobiphenyls and trichlorobiphenyls) of a commercial PCB mixture in the absence of biphenyl or any other cometabolic substrate as a carbon source.
The ability of SK-1, SK-2, SK-3 and SK-4 to degrade Aroclor® 1242 was assessed using cells which were grown on benzoate and then washed. Briefly, the cells were washed by centrifuging the cells, decanting the supernatant, resuspending the cells in fresh medium, then pelleting the cells using centrifugation again and decanting the supernatant to remove residual benzoate and other carbon sources. Aroclor® 1242 was the sole carbon source provided to the cells.
The degradation of Aroclor® 1242 by SK-3 was monitored using gas is chromatography analysis and the results are depicted in FIG. 12. […] The degraded PCB congeners were identified as follows: Peak #1 was 2,5-DCBP or 2,4-DCBP; Peak #2 was 2,3′-DCBP; and Peak #3 was 2,4′-DCBP. No significant degradation of any PCB congener containing three or more chlorine atoms was observed.

bacterial strain SK-3 [6] = assay: Characterization of SK-3: growth on and degradation of chlorobiphenyls and chlorobenzoates
Procedure: as §3
The results from this experiment are depicted in FIG. 5.
The growth of SK-3 on 4-chlorobiphenyl (4-CB) was compared with growth on its non-chlorinated form, biphenyl. […] The results from this experiment are depicted in FIG. 6. The concentration of chloride ion was determined using ion chromatography on a standard Dionex ion chromatography column. The concentration of 4-CB was assessed after hexane extraction of bottles by analyzing the hexane extracts using gas chromatography on a DB-5 column (J&W Scientific, Fulsom, Calif.) and an electron capture detector.
The growth of SK-3 on chlorobenzoates was assessed. […] The results from this experiment are depicted in FIG. 7.
The degradation of three different monochlorobiphenyls, (2-CB, 3-CB, and 4-CB) by SK-3 was assessed at 23° C. under aerobic conditions on a shaker table. After incubation of SK-3 with the selected monochlorobiphenyl for 88 hours, the concentrations of chloride and the corresponding chlorobenzoic acids (CBA) was assessed as described herein. The results from this experiment are depicted in FIG. 8.
The growth of SK-3 on dichloro-biphenyls was also assessed. […] The results of this experiment are depicted in FIG. 9.

bacterial strain SK-4 [7] = assay: Characterization of SK-4: growth on and degradation of 2,2′-DCBP and 2,4′-DCBP
Procedure: The same methods for determining concentrations of analytes and for the incubation of the bacterial strain with growth substrate described herein for the previous analyses were used in the experiments to characterize SK-4. The concentration of SK-4 cells in the experiments was 1.5×10^7 cells per milliliter and the concentration of 2,2′-DCBP or 2,4′-DCBP was 100 milligrams per liter. […] Ortho-substituted congeners are common degradation products of anaerobic reductive dechlorination of more highly chlorinated PCBs (PCBs comprising more than two chlorine atoms) by anaerobic bacteria.
2,2′-DCBP was supplied at a concentration of 100 milligrams per liter dissolved in heptamethyl nonane (HMN), a non-biodegradable PCB solvent. Controls contained HMN but lacked 2,2′-DCBP.

[8] = 1.5×10^7 cells per milliliter, substrate in heptamethyl nonane

Row | Structure (SMILES) | Growth of SK-3 on the substrate as sole carbon source (bacterial strain SK-3 [1]) | Growth of SK-4 on the substrate as sole carbon source (bacterial strain SK-4 [2]) | Time at which concentration of chlorobenzoate produced from 3,4-DCBP by SK-2 reached a maximum, then decreased (bacterial strain SK-2 [3]; 0.3 mM 3,4-DCBP initial concentration) | Growth of SK-1 on the substrate as sole carbon source (bacterial strain SK-1) | Growth of SK-2 on the substrate as sole carbon source (bacterial strain SK-2 [4]) | Time to nearly complete disappearance (bacterial strain SK-2 [3]; SK-2, 0.3 mM initial concentration, supplied in heptamethylnonane) | Increase of cell numbers in the presence of the DCBP as growth substrate (bacterial strain SK-2 [3]; SK-2, initial concentration 500 ppm (w/v), acridine orange direct counting) | Degradation of PCB congeners of Aroclor 1242 by SK-3 (bacterial strain SK-3 [5]) | Growth of SK-3 on the substrate as sole carbon source (bacterial strain SK-3 [6]) | Doubling time of SK-3 grown on the substrate (bacterial strain SK-3 [6]; concentration 0.27 mM, sole carbon source) | Extent of chloride production by SK-3 (bacterial strain SK-3 [6]; growth on 0.27 mM 2,4′-DCBP) | Production of chlorobenzoates (2-CBA, 4-CBA) during growth of SK-3 (bacterial strain SK-3 [6]; growth on 2,4′-DCBP) | Growth of SK-4 on the substrate as sole carbon source (bacterial strain SK-4 [7]; 1.5×10^7 cells per milliliter, 100 milligrams per liter) | Chloride release on degradation by SK-4 (bacterial strain SK-4 [7]; [8]) | Chlorobenzoate production on degradation by SK-4 (bacterial strain SK-4 [7]; [8]) | Doubling time of SK-4 grown on the substrate (bacterial strain SK-4 [7]; concentration 0.42 mM, sole carbon source)
1 | O=C(O)c1ccc(Cl)c(Cl)c1 [3,4-dichlorobenzoate] | No | No | 90 h |  |  |  |  |  |  |  |  |  |  |  |  | 
2 | Clc1ccc(-c2ccccc2)cc1Cl [3,4-DCBP, 3,4-dichlorobiphenyl] | No | No |  | No | exhibited growth and Yes | ≤ 10 days | 1.5 orders of magnitude |  |  |  |  |  |  |  |  | 
3 | Clc1ccc(-c2ccccc2Cl)cc1 [2,4′-DCBP, 2,4′-dichlorobiphenyl] | exhibited growth and Yes | exhibited growth and Yes |  | Yes | Unlikely |  |  | degraded | able to grow | approximately 43 hours | 0.49 mM | not detected | growth; also recorded: ability to grow rapidly | production of chloride | stoichiometric accumulation of a chlorobenzoate | ~17 h
4 | Clc1cccc(-c2ccccc2Cl)c1 [2,3′-DCBP] | No | No |  | No | No |  |  | degraded |  |  |  |  |  |  |  | 
